Patent US11639325B2, “Compositions of polyhydroxylated benzophenones and methods of treatment of neurodegenerative disorders” (Massachusetts Institute of Technology, priority 2015, dated 2023)
Entries after “also recorded” stand apart in the source; their conditions may differ. Read-outs that look alike come from different tables or passages of the source. One block for each molecule: values may come before it.

Tests used:
[1] = target: T1, HDAC1 (Homo sapiens, UniProt Q13547); test: RapidFire Mass Spec assay of HDAC1 deacetylase activity with acetylated peptide substrates; type: biochemical; conditions: for HDAC1 activation (deacetylase activity): Bio-H4K12ac and bio-p53K382ac peptide substrates; for reversal of HDAC1 inhibition by CI-994: HDAC1 preincubated with exifone 1 or 10 μM, or with CI-994 1, 5 or 10 μM for 2 hours
T1 construct: purchased BPS Biosciences (San Diego, Calif.)
Method: (§1) Bio-H4K12ac and Bio-p53K382ac peptides were purchased from Anaspec (Fremont, Calif.). Recombinant HDAC1 and HDAC2 were from BPS Biosciences (San Diego, Calif.). Biochemical assays for evaluation of enzyme activity were performed in 384-well microplates (Perkin Elmer, Waltham, Mass.). A high throughput mass spectrometry assay based on RapidFire™ platform (Agilent Technology, Wakefield, Mass.) was used for analysis of HDAC activity with acetylated peptide substrates derived from histone Bio-H4K12ac (Anaspec #64849) and non-histone Bio-p53K382ac (Anaspec #65046) sequences.
For determination of dose dependence curves, test compounds were preincubated with HDAC1 for 15 minutes. Histone deacetylase reactions were performed following addition of acetylated peptide substrate. The reactions were performed in standard 384-well plates in 50 μl volume with an assay buffer containing 50 mM Tris, pH 7.4, 100 mM KCl, and 0.01% Brij-35. Enzyme reactions were terminated by adding 5 μl of 10% formic acid. Experiments designed to determine the mechanism of action used a varied range of substrate and test compound concentrations. For determining the dose response of individual compounds, HDAC1 reactions were performed with 1 μM of the acetylated peptide substrate for durations ranging from 45 mins for Bio-p53K382ac and 60 minutes for Bio-H4K12ac, with the aim of keeping the substrate conversion below 10%.
For Mass Spec based detection, assay plates were transferred onto a high throughput RapidFire200 integrated autosampler/solid-phase extraction (SPE) system (Agilent Technologies, Wakefield, Mass.) coupled to an API4000 triple quadrupole mass spectrometer (Applied Biosystems, Concord, Ontario, Canada). Additional details for the RapidFire MS analysis are described elsewhere (Rye et al. Advances in label-free screening approaches for studying sirtuin-mediated deacetylation. J Biomol Screen. 2011 December; 16(10):1217-26; Rye et al. Advances in label-free screening approaches for studying histone acetyltransferases. J Biomol Screen. 2011 December; 16(10):1186-95). The peaks detected by Mass Spec were integrated and processed with RapidFire peak integration software (Agilent).
Percentage of substrate conversion was estimated from the RapidFire HTMS assay as a function of product and substrate mass spectrum peak areas and is equal to 100*[Product/(Product+Substrate)]. Percentage of enzyme activation=[(MIN-test compound)/(MIN−MAX)*100], where MINimal (0%) enzyme activity is observed in the presence of a histone deacetylase inhibitor [10 μM SAHA (suberoylanilide hydroxamic acid), SAHA; Vorinostat] and MAXimal enzyme activity of HDAC1 reaction in absence of test compound as 100% activity. MAX and MIN values were calculated from an average of 16 wells of a single column of 384 well plate. Data were analyzed and plotted using Graphpad Prism 6.
Activator potencies were compared by estimating the EC^1.5 values as a function of EC50 values and maximum relative velocity (RVmax) (Dai et al, 2010). EC^1.5 is the concentration of the activator required to achieve 1.5 fold activation (Dai et al, 2010). Data on enzyme activation were analyzed using non-essential enzyme activation (Segel, (1975) Enzyme Kinetics, John Wiley, New York).

[2] = tested on: cultured neurons; test: Immunostaining for γH2AX (DNA double-stranded breaks) in cultured neurons; type: cell-based
[3] = target: T2, HDAC2 (Homo sapiens, UniProt Q92769); test: RapidFire Mass Spec assay of HDAC2 deacetylase activity; type: biochemical; conditions: FIG. 4; read-out: EC50 for HDAC2 activation
T2 construct: purchased BPS Biosciences (San Diego, Calif.)
Method: as §1
For determination of dose dependence curves, test compounds were preincubated with HDAC1 for 15 minutes. […]
For Mass Spec based detection, assay plates were transferred onto a high throughput RapidFire200 integrated autosampler/solid-phase extraction (SPE) system (Agilent Technologies, Wakefield, Mass.) coupled to an API4000 triple quadrupole mass spectrometer (Applied Biosystems, Concord, Ontario, Canada). […] The peaks detected by Mass Spec were integrated and processed with RapidFire peak integration software (Agilent).
Percentage of substrate conversion was estimated from the RapidFire HTMS assay as a function of product and substrate mass spectrum peak areas and is equal to 100*[Product/(Product+Substrate)]. […] MAX and MIN values were calculated from an average of 16 wells of a single column of 384 well plate. […]

[4] = tested on: 5XFAD mice; test: 5XFAD mice behavioral tests (open field, contextual and cued fear conditioning); type: in vivo, mouse; conditions: 50 mg/kg i.p. for 2 weeks
Method: 8-month-old males (WT or 5XFAD mice) received daily for two weeks of full treatment either vehicle (80% saline, 10% DMSO, 10% Tween-80) or exifone (FIG. 1A) (50 mg/kg). Administration was by intraperitoneal injection for 2 weeks. After 2 weeks of treatment, mice were handled more than 3 days before each behavioral test.
Open field test was monitored by TSE Multi Conditioning System, total distance traveled and the number of visits in center were measured using automated activity monitors.
To assess memory formation, fear-conditioning tests in rodents were used. In these paradigms, the extent of freezing behavior, which is defined as the complete lack of movement other than from respiration upon re-exposure to an aversive stimulus (e.g. mild foot shock) and an environmental cue in the form of a specific context (e.g. test chamber) or cue (e.g. a tone), provides an assessment of the strength of memory. […]
(§2) For contextual fear conditioning, mice were put in the conditioning chamber (TSE systems) for 3 min, after which they received a one-time footshock (2 s, 0.8 mA). After 24 hr in the home cage, mice were placed in the same chamber and the freezing bouts, defined as a total lack of movement except for a heartbeat and respiration, were scored during every 10 s during a 3 min period.
(§3) Cued fear conditioning was performed by placing the animals in the test chamber for 3 min following exposure to the auditory cue (30 s, 20 kHz, 75 db sound pressure level) and a foot shock (2 s, 0.8 mA). Associative learning was assessed 24 hr later by placing the mice in the modified chamber and delivery of the identical auditory cue for 3 min.
Behavioral tests were performed on vehicle treated wild type (WT) mice and 5XFAD mice treated with either vehicle control or exifone. […] In both contexts, freezing behavior of the mice was scored for examination memory.

[5] = tested on: 5XFAD mice; test: LTP recording in hippocampal slices of treated 5XFAD mice; type: in vivo, mouse; conditions: thirteen-month-old 5XFAD mice, 50 mg/kg i.p. for 2 weeks
Method: Thirteen-month-old mice were administered doses of 50 mg per kg body weight exifone or vehicle by intraperitoneal injection for 2 weeks before long-term potentiation (LTP) recordings. For LTP recording, mice were anesthetized with isoflurane and decapitated. Transverse hippocampal slices (400 μm thick) were prepared in ice-cold dissection buffer (in mM: 211 sucrose, 3.3 KCl, 1.3 NaH2PO4, 0.5 CaCl2, 10 MgCl2, 26 NaHCO3 and 11 glucose) using a Leica VT1000S vibratome (Leica). Slices were recovered in a submerged chamber with 95% O2/5% CO2-saturated artificial cerebrospinal fluid (ACSF) consisting of (in mM) 124 NaCl, 3.3 KCl, 1.3 NaH2PO4, 2.5 CaCl2, 1.5 MgCl2, 26 NaHCO3 and 11 glucose for 1 h at 28-30° C. For extracellular LTP recording, CA1 field potentials evoked by Schaffer collateral stimulation with bipolar electrode was measured every 30 s. After recording of stable baseline for 15 min, LTP was induced by single theta-burst stimulations (TBS, containing 10 brief bursts which consisted of four pulses at 100 Hz).

[6] = tested on: CK-p25 mice; test: CK-p25 mouse model of neurodegeneration: immunohistochemistry and fear conditioning; type: in vivo
Method: as §2, §3
CK-p25 mice are characterized by massive neuronal loss and severe memory impairment after 6 weeks of the p25 transgene induction (Cruz et al. Aberrant Cdk5 activation by p25 triggers pathological events leading to neurodegeneration and neurofibrillary tangles. Neuron. 2003 Oct. 30; 40(3):471-83). Exifone was chronically administered in CK-p25 mice, model, 3-month-old CK-p25 mice and control mice (no p25 overexpression) were induced for 6 weeks. They received either daily Exifone or vehicle for 3 weeks from week 3 to 6 during the induction period (FIG. 8A).
The associative memory in mice was examined by the contextual fear conditioning test described in Example 3. Mice were treated with vehicle control or exifone and freezing behavior observed 24 hours after contextual fear conditioning training.

[7] = tested on: 5XFAD mice; test: Western blotting of hippocampi of treated 5XFAD mice (histone deacetylation); type: in vivo, mouse; conditions: 50 mg/kg i.p. for 2 weeks
Method: To determine the effects of restoration of HDAC1 activity in 5XFAD mice, mice were treated with exifone. Briefly, eight-month-old mice were administered doses of 50 mg/kg body weight exifone or vehicle control (10% DMSO, 10% Tween-80 and 80% saline) by intraperitoneal injection for 2 weeks. After 2 weeks of treatment, hippocampi were dissected and homogenized in RIPA buffer for Western blotting (FIGS. 10B and 10C).

[8] = tested on: Human induced pluripotent stem cell (iPSC)-derived neurons; test: Viability (Alamar Blue) of human iPSC-derived neurons under rotenone stress; type: cell-based
Excerpt: To further determine the effects of exifone on neurodegenerative disorders like frontotemporal dementia, Alzheimer's disease, and Parkinson's disease, a cellular model of mitochondrial dysfunction and tauopathy was used. Human induced pluripotent stem cell (iPSC)-derived neurons from a healthy control (FIG. 15A) and a frontotemporal dementia patient with a mutation in tau (FIG. 15B) were differentiated in culture for eight weeks (See Silva et al., Stem Cell Reports, 2016). […] Cell viability was measured by Alamar Blue (4 h) assay±SD. Statistical Analysis: Student T-Test; ^nsP>0.05, *P<0.05, **P<0.01, ***P<0.001; n=2 and technical triplicates.

[9] = increasing exifone concentrations
[10] = AD mice model (CK-p25 mice) as printed

T1 sequence (Q13547 whole entry): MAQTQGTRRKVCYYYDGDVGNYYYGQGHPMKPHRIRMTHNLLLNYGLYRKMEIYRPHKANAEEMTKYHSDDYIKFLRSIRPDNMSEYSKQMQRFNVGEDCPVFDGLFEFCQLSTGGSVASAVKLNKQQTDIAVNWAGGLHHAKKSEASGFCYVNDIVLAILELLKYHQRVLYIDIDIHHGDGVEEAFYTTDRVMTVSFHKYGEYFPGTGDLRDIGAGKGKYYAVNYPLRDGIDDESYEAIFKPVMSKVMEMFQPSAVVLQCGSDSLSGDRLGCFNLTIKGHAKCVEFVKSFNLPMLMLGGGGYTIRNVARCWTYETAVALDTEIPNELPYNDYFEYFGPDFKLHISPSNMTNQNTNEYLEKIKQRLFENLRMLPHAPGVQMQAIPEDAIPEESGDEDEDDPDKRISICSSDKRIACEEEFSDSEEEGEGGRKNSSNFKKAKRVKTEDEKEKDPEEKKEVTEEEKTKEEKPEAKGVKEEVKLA
T2 sequence (Q92769 whole entry): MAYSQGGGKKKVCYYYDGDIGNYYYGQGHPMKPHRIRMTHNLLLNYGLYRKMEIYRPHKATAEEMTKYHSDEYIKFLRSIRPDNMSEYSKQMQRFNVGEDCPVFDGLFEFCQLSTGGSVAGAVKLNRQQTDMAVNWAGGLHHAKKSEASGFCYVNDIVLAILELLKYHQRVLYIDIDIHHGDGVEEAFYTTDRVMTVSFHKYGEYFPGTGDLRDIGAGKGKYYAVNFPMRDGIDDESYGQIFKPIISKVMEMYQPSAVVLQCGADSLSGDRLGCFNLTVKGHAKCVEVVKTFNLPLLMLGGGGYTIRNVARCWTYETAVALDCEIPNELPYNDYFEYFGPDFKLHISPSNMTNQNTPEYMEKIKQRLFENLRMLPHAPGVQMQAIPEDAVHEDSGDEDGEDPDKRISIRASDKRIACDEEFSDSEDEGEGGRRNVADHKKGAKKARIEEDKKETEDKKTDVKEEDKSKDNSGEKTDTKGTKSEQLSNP

SMILES: O=C(c1ccccc1)c1ccccc1 [Benzophenone]
- HDAC1 activation (deacetylase activity) [1]: did not cause HDAC1 activation
- HDAC1 activation (deacetylase activity) ([1]; listed as non-hydroxylated benzophenone): does not

- EC50 [3]: 82 nM
- open-field total distance traveled and number of visits to the center [4]: no effect on either of these parameters
- maximal activation of HDAC1 ([1]; 2 hour incubation of HDAC1 at room temperature prior to addition to reaction mix): up to nine fold
- selectivity for HDAC1 activation compared with HDAC2 ([1]; FIG. 4): at least four fold more selective
- EC50 ([1]; FIG. 4, read-out: EC50 for HDAC1 activation (selectivity experiment)): 20 nM
- EC50 ([1]; FIGS. 1B and 1D, 2 hour incubation of HDAC1 at room temperature prior to addition to reaction mix, read-out: EC50 of HDAC1 activation): 45 nM
- reversal of HDAC1 inhibition by CI-994 [1]: capable of reversing inhibition
- reversal of HDAC1 inhibition by CI-994 ([1]; listed as Exifone): partially reversed the inhibitory effect
- HDAC1 activation at high substrate concentration ([1]; bio-H4K12ac peptide concentrations of 125 and 250 μM): No activation was observed
- Vmax of HDAC1 reaction [1, 9]: increased the Vmax
- apparent Km for the bio-H4K12ac peptide [1, 9]: decreased the apparent Km
- mechanism of HDAC1 activation ([1]; varied substrate and activator concentrations): mixed non-essential reaction
- basal locomotion in the open-field test [6, 10]: without an effect on basal locomotion
SMILES: O=C(c1cc(O)c(O)c(O)c1)c1ccc(O)c(O)c1O [exifone]
- γH2AX intensity (DNA damage) [2]: significantly reduced the intensity of γH2AX; also recorded: protection from DNA damage
- freezing response in conditioned (contextual) fear conditioning test [4]: significantly increased
- freezing response in cued fear conditioning test [4]: significantly increased
- HDAC1 activation (deacetylase activity) [1]: dose-dependent increase in HDAC1 activation; also recorded: potent small molecule activator of HDAC1; also recorded: increases the deacetylase activity of HDAC1
- rate of HDAC1-mediated deacetylation (substrate conversion) ([1]; substrate 1 μM, HDAC1 40 nM, exifone 0.05 μM vs control): increased the rate of HDAC1-mediated reactions compared to control conditions; also recorded: increases the rate of deacetylation reaction by HDAC1
- LTP induction [5]: reinstatement of LTP induction
- cognitive function in cued fear-conditioning test [6, 10]: not in cued fear-conditioning test
- freezing behavior / cognitive function in contextual fear conditioning test ([6]; CK-p25 mice, 24 hours after training): enhances the cognitive function; also recorded: comparable freezing behavior to vehicle-treated or exifone-treated control mice
- neuronal loss / markers of neurodegeneration (γH2A.X, NeuN, Hoechst) in hippocampus ([6]; CK-p25 mice, daily for 3 weeks during p25 induction): significantly ameliorated neuronal loss; also recorded: significant reduction of these markers of neurodegeneration; also recorded: ameliorates neuronal loss
- histone deacetylation and HDAC1 activity in hippocampus [7]: trend towards increased histone deacetylation and HDAC1 activity
- rescue of viability of tauopathy patient-derived neurons from rotenone-induced stress ([8]; 8 hours pre-treatment, then 18 hour rotenone, multiple doses): rescued the vulnerability

SMILES: C=C(C)[C@H]1Cc2c(ccc3c2O[C@@H]2COc4cc(OC)c(OC)cc4[C@@H]2C3=O)O1 [rotenone]
- decrease in viability of tauopathy patient-derived neurons ([8]; rotenone, 18 hour): > 50%
